# Reference: patent US20230416233A1, “(AZA)QUINOLINE 4-AMINES DERIVATIVES AS P2X3 INHIBITORS” (CHIESI FARMACEUTICI S.P.A., priority 2020, published 2023)
# Read-outs that look alike come from different tables or passages of the source.
# Assays:
# [1] = biological target: T1, h P2X3 (Homo sapiens, UniProt P56373); experiment: In vitro electrophysiology assay for P2X3 (Sophion Qube automated whole-cell patch clamp); format: cell-based; details: for h P2X3 (pIC50 range of activity): Table 3
# T1 sequence (P56373 1-397): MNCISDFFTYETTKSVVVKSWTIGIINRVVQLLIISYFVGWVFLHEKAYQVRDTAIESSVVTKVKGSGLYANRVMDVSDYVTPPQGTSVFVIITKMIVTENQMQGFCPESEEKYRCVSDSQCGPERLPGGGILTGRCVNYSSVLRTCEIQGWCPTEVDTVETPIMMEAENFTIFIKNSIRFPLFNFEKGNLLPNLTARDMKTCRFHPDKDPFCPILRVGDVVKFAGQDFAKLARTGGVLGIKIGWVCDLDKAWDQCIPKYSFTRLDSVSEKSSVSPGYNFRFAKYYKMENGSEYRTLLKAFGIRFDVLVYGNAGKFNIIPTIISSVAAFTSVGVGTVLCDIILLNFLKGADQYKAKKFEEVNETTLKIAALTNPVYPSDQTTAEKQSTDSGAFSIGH
# Method: In Vitro Electrophysiology Assay for P2X3
# (§1) Cells expressing P2X3 receptors were grown according to standard practice and maintained at 37° C. in a 5% humidified CO2 atmosphere. The cells were seeded into T175 flask 2 days prior to the day of the assay and dissociated from the flasks using TrypLE when grown to confluence of 80-90%. The dissociated cells were resuspended in serum free media at a cell density of 3×10^6 cells/ml and loaded onto the Sophion Qube automated patch-clamp system. The extracellular assay buffer contained 145 mM NaCl, 4 mM KCl, 2 mM CaCl2, 1 mM MgCl2, 10 mM HEPES, and 10 mM glucose at pH 7.4. The intracellular assay solution contained 140 mM CsF, 10 mM NaCl, 10 mM EGTA, 10 mM HEPES at pH 7.2. Agonist stock solutions were prepared in H2O and diluted in bath solution prior to use. All antagonists were prepared as 10 mM stock solutions in DMSO and diluted in bath solution prior to use. All experiments were performed under the whole-cell patch clamp configuration at room temperature with 384 individual cells being voltage clamped at −60 mV simultaneously on the Sophion Qube instrument. Two baseline responses were established with the application of α,β-MeATP (800 nM), with the subsequent agonist applications being washed out using extracellular assay buffer containing 0.5 U/ml apyrase. Following the second agonist application, antagonist was incubated in the absence of α,β-MeATP for 10 minutes. After antagonist preincubation, 800 nM α,β-MeATP and antagonist were co-administered to determine the inhibitory effect of the antagonist. One concentration of an antagonist was assessed against a single cell, with different concentrations of the antagonist applied to other cells on the 384 recording substrate. The control P2X3 current amplitude was taken from the peak current amplitude from the second agonist response prior to preincubation with antagonist. The peak P2X3 current amplitude in the presence of antagonist was used to calculate the inhibitory effect at each concentration of the antagonist according to the following equation:
# Percentage inhibition of P2X3=(P2X3 control peak amplitude−P2X3 antagonist peak amplitude)/P2X3 control peak amplitude)*100
# Concentration-response curves were constructed from ten different concentrations with each concentration of antagonist tested on at least two individual cells. The concentration of the antagonist to inhibit P2X3 current by 50% (IC50) was determined by fitting the data with the following equation:
# Y=a+[(b−a)/(1+10^((log c−x)d)]
# Where ‘a’ is minimum response, ‘b’ is maximum response, ‘c’ is IC50 and ‘d’ is Hill slope.
# The results for individual compounds are provided below in Table 2 and are expressed as range of activity.
# [2] = biological target: T2, h P2X2/3 (Homo sapiens, UniProt P56373+Q9UBL9); experiment: In vitro electrophysiology assay for P2X2/3 (same protocol as the P2X3 assay, 10 μM ATP as agonist); format: cell-based; details: Table 3; agonist 10 μM ATP, mean current amplitude seven seconds after agonist; read-out: h P2X2/3 (pIC50 range of activity) (converted)
# T2 construct: host or cells: cells not described; same protocol as the P2X3 assay
# T2 sequence (P56373 1-397): T1 sequence (P56373 1-397)
# T2 sequence (Q9UBL9 1-471): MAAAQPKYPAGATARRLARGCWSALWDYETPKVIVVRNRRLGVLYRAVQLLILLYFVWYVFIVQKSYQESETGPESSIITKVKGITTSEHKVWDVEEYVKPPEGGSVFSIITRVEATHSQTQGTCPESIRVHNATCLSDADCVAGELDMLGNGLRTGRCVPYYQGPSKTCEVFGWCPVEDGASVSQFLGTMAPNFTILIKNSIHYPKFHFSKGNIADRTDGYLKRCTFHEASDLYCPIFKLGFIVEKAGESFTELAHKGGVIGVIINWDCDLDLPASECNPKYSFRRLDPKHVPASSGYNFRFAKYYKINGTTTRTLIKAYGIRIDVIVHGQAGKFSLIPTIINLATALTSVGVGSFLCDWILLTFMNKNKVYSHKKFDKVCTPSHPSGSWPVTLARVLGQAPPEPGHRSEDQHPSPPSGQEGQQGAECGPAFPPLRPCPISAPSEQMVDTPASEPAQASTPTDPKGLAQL
# Method: as §1, with “The peak P2X3 current amplitude in the presence of antagonist was used to calculate the inhibitory effect at each concentration of the antagonist according to the following equation:” left out
# The same assay protocol was used for the P2X2/3 assay as the P2X3 assay with two modifications: 1) 10 μM ATP was used as the agonist; and 2) the mean current amplitude was measured seven seconds after the application of agonist.
# [3] = Table 2, agonist 800 nM α,β-MeATP, 10 min antagonist preincubation, peak current, read-out: h P2X3 (pIC50 range of activity) (converted)
# [4] = agonist 800 nM α,β-MeATP, peak current
SMILES,"IC50 [1, 3]","IC50 ([1]; in vitro assay as described for P2X3, read-out: activity on receptor P2X3 expressed as pIC50 (converted))",IC50 [2],"h P2X3 (pIC50 range of activity) [1, 4]"
"Cc1ccc(-c2ccc3nccc(NCc4ccc(C)nn4)c3c2)nc1 [Example 10, N-((6-methylpyridazin-3-yl)methyl)-6-(5-methylpyridin-2-yl)quinolin-4-amine]",< 316 nM,,,
"Cc1ccc(CNc2nccc3ccc(-c4ccc(F)cc4)cc23)nn1 [comparative Example A, reference compound]",,> 3160 nM,,
"COc1cc(-c2ncc(C)cn2)cc2c(N[C@H](C)c3ccc(C)nn3)cnnc12 [Example 8, (R)-8-methoxy-N-(1-(6-methylpyridazin-3-yl)ethyl)-6-(5-methylpyrimidin-2-yl)cinnolin-4-amine]",< 316 nM,,3160 to 31600 nM,+++ (+++: pIC50 h P2X3 or h P2X2/3 > 6.5)
"Cc1ccc([C@@H](C)Nc2cnnc3ccc(-c4ccc(F)cc4)cc23)nn1 [Example 13, 6-(4-Fluorophenyl)-N-[(1R)-1-(6-methylpyridazin-3-yl)ethyl]cinnolin-4-amine]",< 316 nM,,,
"COc1cc(-c2ccc(F)cc2)cc2c(N[C@H](C)c3cnc(C(F)(F)F)nc3)cnnc12 [Example 7, (R)-6-(4-fluorophenyl)-8-methoxy-N-(1-(2-(trifluoromethyl)pyrimidin-5-yl)ethyl)cinnolin-4-amine]",< 316 nM,,,
"Cc1ccc(-c2ccc3nncc(N[C@H](C)c4cnc(C(F)(F)F)nc4)c3c2)nc1 [Example 4, 6-(5-Methylpyridin-2-yl)-N-((1R)-1-(2-(trifluoromethyl)pyrimidin-5-yl)ethyl)cinnolin-4-amine]",< 316 nM,,316 to 3160 nM,+++ (+++: pIC50 h P2X3 or h P2X2/3 > 6.5)
"Cc1ccc(CNc2cnnc3ccc(-c4ccc(F)cc4)cc23)nn1 [Example 1, 6-(4-Fluorophenyl)-N-((6-methylpyridazin-3-yl)methyl)cinnolin-4-amine]",< 316 nM,,,
"Cc1cnc(-c2ccc3nncc(N[C@H](C)c4cnc(C(F)(F)F)nc4)c3c2)s1 [Example 3, 6-(5-Methylthiazol-2-yl)-N-((1R)-1-(2-(trifluoromethyl)pyrimidin-5-yl)ethyl)cinnolin-4-amine]",< 316 nM,,,
"COc1cc(-c2ccc(F)cc2)cc2c(N[C@H](C)c3ccc(C)nn3)cnnc12 [Example 6, (R)-6-(4-fluorophenyl)-8-methoxy-N-(1-(6-methylpyridazin-3-yl)ethyl)cinnolin-4-amine]",< 316 nM,,,

# Continued, in another order:
"IC50 [1, 3]","IC50 ([1]; in vitro assay as described for P2X3, read-out: activity on receptor P2X3 expressed as pIC50 (converted))",IC50 [2],SMILES,"h P2X3 (pIC50 range of activity) [1, 4]"
< 316 nM,,,"Cc1ccc(-c2ccc3nccc(N[C@H](C)c4cnc(C(F)(F)F)nc4)c3c2)nc1 [Example 9, (R)-6-(5-methylpyridin-2-yl)-N-(1-(2-(trifluoromethyl)pyrimidin-5-yl)ethyl) quinolin-4-amine]",
316 to 3160 nM,,,"C[C@@H](Nc1ccnc2ccc(-c3ccc(F)cc3)cc12)c1cnc(C(F)(F)F)nc1 [Example 12, (R)-6-(4-fluorophenyl)-N-(1-(2-(trifluoromethyl)pyrimidin-5-yl)ethyl)quinolin-4-amine]",
< 316 nM,,316 to 3160 nM,"C[C@@H](Nc1cnnc2ccc(-c3ccc(F)cc3)cc12)c1cnc(C(F)(F)F)nc1 [Example 2, 6-(4-Fluorophenyl)-N-((1R)-1-(2-(trifluoromethyl)pyrimidin-5-yl)ethyl)cinnolin-4-amine]",+++ (+++: pIC50 h P2X3 or h P2X2/3 > 6.5)
< 316 nM,,,"Cc1ccc(-c2ccc3nncc(NCc4ccc(C)nn4)c3c2)nc1 [Example 5, N-((6-methylpyridazin-3-yl)methyl)-6-(5-methylpyridin-2-yl)cinnolin-4-amine]",
< 316 nM,,,"Cc1ccc(CNc2ccnc3ccc(-c4ccc(F)cc4)cc23)nn1 [Example 11, 6-(4-Fluorophenyl)-N-((6-methylpyridazin-3-yl)methyl)quinolin-4-amine]",
